Earlier results, collected in patent US6548270B1, “DNA encoding human acid-sensing ion channel BNaC4 (ASIC4)” (Ortho-McNeil Pharmaceutical, Inc., priority 2000, dated 2003).

Key:
[1] = target: T1, MDEG1 + MDEG2 (Rattus norvegicus, UniProt Q62962); conditions: 500 μM amiloride; cited from earlier work
T1 sequence (Q62962 1-512): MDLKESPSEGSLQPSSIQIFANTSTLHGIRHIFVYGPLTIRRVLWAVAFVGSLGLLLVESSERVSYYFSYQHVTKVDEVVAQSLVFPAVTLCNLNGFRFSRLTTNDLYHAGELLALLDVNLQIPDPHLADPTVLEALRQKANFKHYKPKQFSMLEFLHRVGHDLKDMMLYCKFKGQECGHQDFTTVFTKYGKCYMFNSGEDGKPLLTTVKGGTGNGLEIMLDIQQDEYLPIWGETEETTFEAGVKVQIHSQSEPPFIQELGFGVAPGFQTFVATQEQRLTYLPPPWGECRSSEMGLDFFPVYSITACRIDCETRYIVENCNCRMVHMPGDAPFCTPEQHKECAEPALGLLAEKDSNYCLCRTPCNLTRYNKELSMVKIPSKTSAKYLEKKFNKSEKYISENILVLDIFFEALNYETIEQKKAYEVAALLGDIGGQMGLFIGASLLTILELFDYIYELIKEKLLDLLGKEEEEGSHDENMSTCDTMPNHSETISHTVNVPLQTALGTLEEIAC
T1 sequence (Q62962 1-563 isoform Q62962-2): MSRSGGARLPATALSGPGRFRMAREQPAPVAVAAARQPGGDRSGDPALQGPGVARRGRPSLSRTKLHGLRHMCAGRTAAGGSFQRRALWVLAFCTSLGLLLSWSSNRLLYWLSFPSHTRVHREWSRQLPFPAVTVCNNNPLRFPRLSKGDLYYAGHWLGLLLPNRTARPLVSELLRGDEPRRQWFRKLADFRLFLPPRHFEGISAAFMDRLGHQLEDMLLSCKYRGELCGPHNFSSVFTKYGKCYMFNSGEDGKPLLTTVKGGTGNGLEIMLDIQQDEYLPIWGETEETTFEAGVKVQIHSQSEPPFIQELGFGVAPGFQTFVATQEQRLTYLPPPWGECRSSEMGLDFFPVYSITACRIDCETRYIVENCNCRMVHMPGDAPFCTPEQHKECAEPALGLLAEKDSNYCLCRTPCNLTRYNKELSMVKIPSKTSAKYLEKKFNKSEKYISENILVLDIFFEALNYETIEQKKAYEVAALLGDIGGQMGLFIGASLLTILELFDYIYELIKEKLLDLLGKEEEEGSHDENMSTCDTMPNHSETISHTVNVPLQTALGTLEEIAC

[2] = test system: ASIC2a; conditions: ASIC2a gain of function mutant channels; cited from earlier work

N=C(N)NC(=O)c1nc(Cl)c(N)nc1N [amiloride]
Amiloride sensitivity (block) [1]: MDEG1 + MDEG2 completely
Amiloride sensitivity (block of channels) [2]: Amiloride blocked gain of function
